Earlier results on one compound are cited in patent publication US5196203A, “Theophylline dosage form” (priority 1989, dated 1993).

The structures appear in SMILES notation.

Regarding `Cn1c(=O)c2[nH]cnc2n(C)c1=O` [Theophylline, 1,3-dimethylxanthine], the “Effect at plasma concentrations above 20 mg/L” value is on record as “often associated with theophylline toxicity”.
